According to patent US4855304A, “Dinucleoside pyrophosphates and pyrophosphate homologs as plant antivirals” (Repligen Corporation, priority 1985, dated 1989):
Where two headings read alike, the source gives them in different places.

Columns and labels:
[1] = tested on: TMV (tobacco mosaic virus) replication in TMV-infected tobacco leaf discs; assay: Antiviral activity in TMV-infected leaf discs (TMV content by ELISA); assay type: cell-based, tobacco mosaic virus; leaf discs of N. tabacum var. samsun; set-up: key to TMV content: N.I.: no inhibition; details: for ng TMV/ml: control 550 (Table 4)
Method: Assays for antiviral activity in TMV-infected leaf discs were done using leaves of N. tabacum var. samsun in which TMV is systemically spread. Leaves were mechanically inoculated with purified TMV (5 μg/ml in 0.01M sodium phosphate buffer, pH 7.6, containing 0.1 g/ml of carborundum as an abrasive). Immediately after infection, leaf discs (6.5 mm diameter) were punched out of the inoculated leaves and placed in a beaker containing 0.01M sodium phosphate, pH 7.6.
selected at random from this common pool and placed onto separate petri dishes, each containing 18 ml of 10 mM 4-(2-hydroxyethyl)-1-piperazine ethanesulfonic acid (HEPES)-KOH, pH 7.05, 188 mg/L Na2 HPO4 --7H2 O. […] At the end of the 1 hr incubation, the buffer containing the antiviral dinucleotide was replaced by a buffer lacking the antiviral dinucleotide for another hr. The discs were then washed with 0.01M sodium phosphate, pH 7.6, and were allowed to incubate for an additional 72 hr in phosphate buffer (Devash, Y., Biggs, S. and Sela, I. [1982] Science 216: 1415-1416; Devash, Y. et al. [1984] J. Biol. Chem. 259: 3482-3486). The discs were homogenized in 0.01M sodiuM phosphate buffer, pH 7.6, and the TMV content was determined by enzyme-linked immunosorbent assay (ELISA) as described below.
(§1) The TMV content of the homogenates was determined by ELISA essentially by the method of Clark and Adams ([1977] J. Gen. Virol. 34: 475-483) but with the following order of layers on the microtiter plates.
(§2) (a) the γ-globulin fraction of a serum obtained from a chicken immunized against TMV was absorbed directly to the plate.
(§3) (b) The next layer was the tested sample (at various dilutions) or a series of purified TMV suspensions at known concentrations (calibration curve).
(§4) (c) The third layer was the γ-globulin from the serum of a TMV-immunized rabbit.
(§5) (d) The final layer was goat antibody to rabbit immunoglobulin G conjugated with alkaline phosphatase (Sigma). The release of phosphate from p-nitrophenyl phosphate due to the antibody-conjugated alkaline phosphatase was monitored spectrophotometrically with a Microplate reader (Dynatech Diagnostics, Inc. South Windham, ME) and was proportional to TMV concentration in a log linear manner for about two logs (<2 ng to>200 ng). (Devash, Y., Biggs, S. and Sela, I. [1982] Science 216: 1415-1416)
The γ-globulin fraction of serum obtained from chickens and rabbits immunized against TMV were generous gifts from Professor Ilan Sela, The Hebrew University of Jerusalem, Agriculture Faculty, Rehobot, Israel.

[2] = tested on: TMV (tobacco mosaic virus) replication in intact N. glutinosa plants; assay: Antiviral activity in N. glutinosa intact plants, infectivity test (local lesions); assay type: in vivo, tobacco mosaic virus; Nicotiana glutinosa; details: for induced resistance to TMV infection in the non-treated half-leaf: 1 μM (10^-6 M)
Method: (§6) Nicotiana glutinosa and N. tabacum var. samsum plants were grown in potting medium in greenhouse conditions (25±3° C., and constant illumination). The plants were fertilized with a commercial fertilizer every two weeks. Plants were used at 5-8 leaf stage (Devash, Y., Biggs, S. and Sela, I. [1982] Science 216: 1415-1416; Devash, Y. et al. [1984] Jour. Biol. Chem. 259: 3482-3486).
The ability of the antiviral dinucleotides to inhibit TMV replication in intact N. glutinosa plants (containing N-gene for TMV localization) was determined by infectivity tests. Solutions containing 5 μg/ml TMV, 0.1 μg/ml carborundum, and antiviral dinucleotide were applied to 5 half-leaves of N. glutinosa. The opposite half-leaves served as controls and were inoculated with infecting solution containing TMV and carborundum but no dinucleotides. The infection was allowed to proceed 48 hr. Inhibition of TMV replication was calculated as the percent of local lesions produced in antiviral compound treated half-leaves, as compared to control half-leaves.

[3] = tested on: TMV (tobacco mosaic virus) in N. tabacum plants; assay: Root application to N. tabacum intact plants (TMV content by ELISA); assay type: in vivo, tobacco mosaic virus; Nicotiana tabacum; details: for suppression (inhibition) of the virus: 1 μM (10^-6 M), exposure of plant roots; for % Protection / ng TMV/g of leaves: 1 μM, roots, 2 hr; for ng TMV/g of leaves: control 200
Method: as §6
Nicotiana tabacum plants were used as a source of plant tissue in which TMV is spread systemically.
(a) Root application: N. tabacum plants were removed from their pots and transferred into 50 ml tubes containing 10 ml of 10 mM HEPES-KOH, pH 7.6, and the antiviral dinucleotides. Two hr later, plants were transferred into 50 ml tubes lacking the antiviral compound and were inoculated by TMV as described above. Twenty-four hr later leaves were homogenized in 0.01M sodium phosphate buffer, pH 7.6, (1 g leaves/3 ml buffer) and TMV content was determined by ELISA.
as §1, §2, §3, §4, §5
In order to establish the relationship of the induced resistance to the N-gene for viral localization and to the transmission ability of the compounds, a comparison between leaf application and root application of antiviral dinucleotides to N. tabacum plants was made. N. tabacum plants were removed into vials containing 10 ml of 10 mM HEPES-KOH, pH 7.6, and 1 μM of antiviral dinucleotide. The plant roots were allowed to remain in the solutions for 2 hr and then were transferred to vials containing the buffer without the antiviral compounds.
The plants then were infected with TMV as above. (See section 4. Antiviral activity on N. tabacum intact plants, paragraph [a].) Another group of N. tabacum plants was tested as described in the above-noted section, paragraph (b).

[4] = 10 nM (10^-8 M), non-treated half-leaf
[5] = 10 nM (10^-8 M), treated half-leaf
[6] = 100 nM (10^-7 M), non-treated half-leaf
[7] = 100 nM (10^-7 M), treated half-leaf
[8] = 1000 nM (10^-6 M), non-treated half-leaf
[9] = 1000 nM (10^-6 M), treated half-leaf

For Nc1ncnc2c1ncn2[C@@H]1O[C@H](COP(=O)(O)OP(=O)(O)O[C@H]2[C@@H](O)[C@H](n3cnc4c(N)ncnc43)O[C@@H]2CO)[C@@H](O)[C@H]1O [A3'pp5'A, adenosine 3',5'-diphospho-adenosine], the “ng TMV/ml” value ([1]; 2 × 10^-9 M) was 550 ng TMV/ml, the “ng TMV/ml” value ([1]; 20 × 10^-9 M) was 200 ng TMV/ml and the “ng TMV/ml” value ([1]; 200 × 10^-9 M) was 150 ng TMV/ml. For the same compound, the “effectiveness in inhibiting TMV replication compared with 2',5'-adenylate trimer core” value ([1]; TMV-infected discs, in words) was “confer similar antiviral state”, the inhibition at 0.002 µM ([1]; Tobacco mosaic virus, 2 × 10^-9 M (Table 4), read-out: % Inhibition as Related to Control) was 0% and the inhibition at 0.02 µM ([1]; Tobacco mosaic virus, 20 × 10^-9 M (Table 4), read-out: % Inhibition as Related to Control) was 64%. The inhibition at 0.2 µM ([1]; Tobacco mosaic virus, 200 × 10^-9 M (Table 4), read-out: % Inhibition as Related to Control) was 73%, the “induced resistance to TMV infection in the non-treated half-leaf” value ([2]; in words) was “resulted in an induced resistance to TMV infection even in the non-treated half-leaf” and the “percent protection as compared to control TMV infected leaves” value (“percent protection” for short) ([2]; 10^-6 M, non-treated half leaf (Table 5)) was 93%. The “percent protection” value ([2]; 10^-6 M, treated half leaf (Table 5)) was 100% and the “inhibition of TMV replication (inhibition of formation of local lesions)” value ([2]; N. glutinosa intact plants, in words) was “inhibited the TMV replication”.
For Nc1ncnc2c1ncn2[C@@H]1O[C@H](COP(=O)(O)OP(=O)(O)OC[C@H]2O[C@@H](n3cnc4c(N)ncnc43)[C@H](O)[C@@H]2O)[C@@H](O)[C@H]1O [A5'pp5'A, diadenosine 5',5'"-p^1,p^2 -diphosphate], the TMV content ([1]; 100 nM, treatment with [Ca^+2] coprecipitation, control 75) was 48 ngTMV/ml, the TMV content ([1]; 100 nM, treatment without [Ca^+2] coprecipitation, control 56) was “N.I” and the TMV content ([1]; 200 nM, treatment with [Ca^+2] coprecipitation, control 75) was 44 ngTMV/ml. The TMV content ([1]; 200 nM, treatment without [Ca^+2] coprecipitation, control 56) was “N.I”, the inhibition at 0.1 µM ([1]; Tobacco mosaic virus, 100 nM, treatment with [Ca^+2] coprecipitation, read-out: percent inhibition as related to control) was 36% and the inhibition at 0.1 µM ([1]; Tobacco mosaic virus, 100 nM, treatment without [Ca^+2] coprecipitation, read-out: percent inhibition as related to control) was 0%. The inhibition at 0.2 µM ([1]; Tobacco mosaic virus, 200 nM, treatment with [Ca^+2] coprecipitation, read-out: percent inhibition as related to control) was 41%, the inhibition at 0.2 µM ([1]; Tobacco mosaic virus, 200 nM, treatment without [Ca^+2] coprecipitation, read-out: percent inhibition as related to control) was 0% and the “percent protection” value [2, 4] was 68.4%. The “percent protection” value [2, 5] was 96.0%, the “percent protection” value [2, 6] was 54.6% and the “percent protection” value [2, 7] was 95.4%. For the same compound, the “induced resistance to TMV infection in the non-treated half-leaf” value ([2]; in words) was “resulted in an induced resistance to TMV infection even in the non-treated half-leaf”, the “percent protection” value [2, 8] was 100% and the “percent protection” value [2, 9] was 100%. The “suppression (inhibition) of the virus” value [3] was 98-100%, the “% Protection” value [3] was 100% and the “ng TMV/g of leaves” value [3] was 0 ng TMV/g of leaves.
With Nc1ccn([C@@H]2O[C@H](COP(=O)(O)OP(=O)(O)OC[C@H]3O[C@@H](n4cnc5c(N)ncnc54)[C@H](O)[C@@H]3O)[C@@H](O)[C@H]2O)c(=O)n1 [A5'pp5'C, adenosine 5',5'"-p^1,p^2 -diphospho-cytidine] the “percent protection” value [2, 4] was 36.1%, the “percent protection” value [2, 5] was 55.0% and the “percent protection” value [2, 6] was 35.5%. The “percent protection” value [2, 7] was 51.9%, the “induced resistance to TMV infection in the non-treated half-leaf” value ([2]; in words) was “resulted in an induced resistance to TMV infection even in the non-treated half-leaf” and the “percent protection” value [2, 8] was 32.9%. The “percent protection” value [2, 9] was 63.5%.
Nc1nc2c(ncn2[C@@H]2O[C@H](COP(=O)(O)OP(=O)(O)OC[C@H]3O[C@@H](n4cnc5c(N)ncnc54)[C@H](O)[C@@H]3O)[C@@H](O)[C@H]2O)c(=O)[nH]1 [A5'pp5'G, adenosine 5',5'"-p^1,p^2 -diphospho-guanosine] was tested, and the “percent protection” value [2, 4] was 59.8%, the “percent protection” value [2, 5] was 84.8% and the “percent protection” value [2, 6] was 44.7%. For the same compound, the “percent protection” value [2, 7] was 89.5%, the “induced resistance to TMV infection in the non-treated half-leaf” value ([2]; in words) was “resulted in an induced resistance to TMV infection even in the non-treated half-leaf” and the “percent protection” value [2, 8] was 100%. For the same compound, the “percent protection” value [2, 9] was 100%, the “suppression (inhibition) of the virus” value [3] was 98-100% and the “% Protection” value [3] was 98%. The “ng TMV/g of leaves” value [3] was 4 ng TMV/g of leaves.
In the case of Nc1ncnc2c1ncn2[C@@H]1O[C@H](COP(=O)(O)OP(=O)(O)OC[C@H]2O[C@@H](n3ccc(=O)[nH]c3=O)[C@H](O)[C@@H]2O)[C@@H](O)[C@H]1O [A5'pp5'U, adenosine 5',5'"-p^1,p^2 -diphospho-uridine], the “percent protection” value [2, 4] is reported as 5.2%, the “percent protection” value [2, 5] is reported as 38.1% and the “percent protection” value [2, 6] is reported as 0%. The “percent protection” value [2, 7] was 0%, the “percent protection” value [2, 8] was 21.0% and the “percent protection” value [2, 9] was 80.2%.
For Nc1ncnc2c1ncn2[C@@H]1O[C@H](COP(=O)(O)OP(=O)(O)O[C@@H]2[C@H](O)[C@@H](CO)O[C@H]2n2cnc3c(N)ncnc32)[C@@H](O)[C@H]1O [Adenosine 2',5'-p^1,p^2-diadenosine, adenosine 2',5'-diphospho-adenosine], the “inhibition of TMV replication” value ([1]; TMV-infected discs, in words) was “effective inhibitor of TMV replication”, the inhibition at 1 µM ([1]; Tobacco mosaic virus, 10^-6 M (Table 6), read-out: % Inhibition as related to control) was 42% and the inhibition at 0.1 µM ([1]; Tobacco mosaic virus, 10^-7 M (Table 6), read-out: % Inhibition as related to control) was 37%. The inhibition at 0.01 µM ([1]; Tobacco mosaic virus, 10^-8 M (Table 6), read-out: % Inhibition as related to control) was 26.4%, the inhibition at 0.001 µM ([1]; Tobacco mosaic virus, 10^-9 M (Table 6), read-out: % Inhibition as related to control) was 21% and the inhibition at 0.0001 µM ([1]; Tobacco mosaic virus, 10^-10 M (Table 6), read-out: % Inhibition as related to control) was 0%.
In the case of Nc1ncnc2c1ncn2[C@@H]1O[C@H](COP(=O)(O)OP(=O)(O)OC[C@H]2O[C@@H](n3cnc4c(N)ncnc43)[C@@H]3OP(=O)(O)O[C@@H]32)[C@H]2OP(=O)(O)O[C@H]21 [P<A5'PP5'A>P, 2',3'-cyclic phospho-diadenosine 5',5'"-p^1,p^2-diphosphate], the “antiviral activity/potency on structural modification” value ([1]; in words, compared to dinucleotides with 2 and 3 internal phosphates) is reported as “did not decrease their antiviral potency”.
